IC50 data for 23 compounds are collected here from patent US9512107B2, “Therapeutically active compositions and their methods of use” (Agios Pharmaceuticals, Inc., priority 2012, dated 2016).

Numbering of substitutions follows the chain as printed. Some results are limits rather than exact numbers.

One assay deals with T1, IDH2 R172K (Homo sapiens, UniProt P48735, R172K).
T1 sequence (P48735 40-452 R172K): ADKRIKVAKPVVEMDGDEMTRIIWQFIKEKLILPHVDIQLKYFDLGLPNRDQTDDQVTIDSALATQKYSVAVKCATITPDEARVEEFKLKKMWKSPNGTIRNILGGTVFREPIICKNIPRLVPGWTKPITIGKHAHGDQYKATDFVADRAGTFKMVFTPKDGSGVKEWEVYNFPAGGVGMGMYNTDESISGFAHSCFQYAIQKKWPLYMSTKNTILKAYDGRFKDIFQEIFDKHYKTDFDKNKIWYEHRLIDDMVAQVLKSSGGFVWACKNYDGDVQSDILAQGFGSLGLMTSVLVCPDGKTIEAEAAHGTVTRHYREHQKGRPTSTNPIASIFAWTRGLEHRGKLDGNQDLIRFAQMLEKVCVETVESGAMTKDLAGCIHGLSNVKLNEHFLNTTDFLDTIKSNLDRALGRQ
Kind of assay: IDH2 R172K enzymatic assay (NADPH cofactor depletion, diaphorase/resazurin readout). Format: biochemical. The note with it: read-out: Enz R172K. The essentials: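 Compound was preincubated with IDH2 R172K for 1 h at room temperature, then the reaction was started with substrate mix containing 50 μM NADPH and 6.3 mM α-KG. After another 1 h at room temperature, stop mix with diaphorase and resazurin consumed the remaining NADPH, and resorufin fluorescence was read.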
A general note: Alamar Blue is a resazurin reagent that responds to reducing activity.

In another assay the target is T2, IDH2 R140Q (Homo sapiens, UniProt P48735, R140Q).
T2 sequence (P48735 40-452 R140Q): T1 sequence (P48735 40-452 R172K) with R101Q, K133R
As to the kind of experiment: IDH2 R140Q enzymatic assay (cofactor depletion, similar format). Conditions: read-out: Enz R140Q. Format: biochemical.

In assay [1] the test system is U87MG pLVX-IDH2 R140Q-neo cells. As to the kind of experiment: U87MG pLVX-IDH2 R140Q-neo cell based assay, 2-HG in media by LC-MS at 48 hours. The note with it: Homo sapiens, U-87 MG. The essentials: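 U87MG cells stably expressing IDH2 R140Q were seeded overnight, then exposed to compound at 0.2% final DMSO at 37 °C, 5% CO2. 2-HG in the medium was quantified by LC-MS at 48 h. Growth inhibition was read by CellTiter-Glo luminescence at 72 h.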

For `CC(C)Nc1nc(Nc2cncc(F)c2)nc(-c2cccc(N)n2)n1` [Compound 470, 6-(6-Amino-pyridin-2-yl)-N-(5-fluoro-pyridin-3-yl)-N′-isopropyl-[1,3,5]triazine-2,4-diamine], the IC50 on IDH2 R172K is 100 to 1000 nM; at IDH2 R140Q, 100 to 1000 nM; in assay [1], < 100 nM.

`Cc1nc(-c2nc(Nc3cccc(F)c3)nc(NC(C)C)n2)co1` [Compound 471, N-(3-Fluoro-phenyl)-N′-isopropyl-6-(2-methyl-oxazol-4-yl)-[1,3,5]triazine-2,4-diamine]: the IC50 was 100 to 1000 nM at IDH2 R172K, 100 to 1000 nM on IDH2 R140Q and < 100 nM in assay [1].

Take `Cc1cc(-c2nc(Nc3cccc(F)c3)nc(NC(C)C)n2)no1` [Compound 472, N-(3-Fluoro-phenyl)-N′-isopropyl-6-(5-methyl-isoxazol-3-yl)-[1,3,5]triazine-2,4-diamine]: the IC50 was 100 to 1000 nM at IDH2 R172K, < 100 nM on IDH2 R140Q and < 100 nM in assay [1].

On to `CC(C)Nc1nc(Nc2cccc(F)c2)nc(-c2c(F)cccc2F)n1` [Compound 473, 6-(2,6-Difluoro-phenyl)-N-(3-fluoro-phenyl)-N′-isopropyl-[1,3,5]triazine-2,4-diamine], for which the IC50 (at IDH2 R172K; at IDH2 R140Q; in assay [1]) was < 100 nM throughout.

For `CC(C)Nc1nc(Nc2cncc(F)c2)nc(-c2c(F)cccc2F)n1` [Compound 474, 6-(2,6-Difluoro-phenyl)-N-(5-fluoro-pyridin-3-yl)-N′-isopropyl-[1,3,5]triazine-2,4-diamine], the values for the IC50 (on IDH2 R172K; at IDH2 R140Q; in assay [1]) were < 100 nM, 100 to 1000 nM and < 100 nM, respectively.

On to `CC(C)Nc1nc(Nc2cccc(F)c2)nc(-c2nc(C(F)(F)F)cs2)n1` [Compound 475, N-(3-Fluoro-phenyl)-N′-isopropyl-6-(4-trifluoromethyl-thiazol-2-yl)-[1,3,5]triazine-2,4-diamine], for which the IC50 (on IDH2 R172K; at IDH2 R140Q; in assay [1]) was < 100 nM throughout.

Turning to `Cc1nc(-c2nc(Nc3cc(F)cc(F)c3)nc(NC(C)C)n2)co1` [Compound 476, N-(3,5-Difluoro-phenyl)-N′-isopropyl-6-(2-methyl-oxazol-4-yl)-[1,3,5]triazine-2,4-diamine], the IC50 was 100 to 1000 nM at IDH2 R172K, < 100 nM at IDH2 R140Q and < 100 nM in assay [1].

As for `CC(C)Nc1nc(Nc2cc(F)cc(F)c2)nc(-c2nc(N)ccc2F)n1` [Compound 477, 6-(6-amino-3-fluoropyridin-2-yl)-N2-(3,5-difluorophenyl)-N4-isopropyl-1,3,5-triazine-2,4-diamine], the IC50 was < 100 nM on IDH2 R172K, 100 to 1000 nM at IDH2 R140Q and < 100 nM in assay [1].

As for `Nc1ccnc(-c2nc(NCC3CC3)nc(Nc3cc(F)cc(F)c3)n2)n1` [Compound 478, 6-(4-Amino-pyrimidin-2-yl)-N-cyclopropylmethyl-N′-(3,5-difluoro-phenyl)-[1,3,5]triazine-2,4-diamine], the values for the IC50 (at IDH2 R172K; at IDH2 R140Q; in assay [1]) were < 100 nM, 100 to 1000 nM and < 100 nM, respectively.

For the compound `CC(C)(C)Nc1nc(Nc2cc(F)cc(F)c2)nc(-c2nccc(N)n2)n1` [Compound 479, 6-(4-Amino-pyrimidin-2-yl)-N-tert-butyl-N′-(3,5-difluoro-phenyl)-[1,3,5]triazine-2,4-diamine], the IC50 at IDH2 R172K was 100 to 1000 nM; on IDH2 R140Q, 100 to 1000 nM; in assay [1] it was < 100 nM.

Consider `Nc1ccnc(-c2nc(NCC(F)(F)F)nc(Nc3cc(F)cc(F)c3)n2)n1` [Compound 480, 6-(4-Amino-pyrimidin-2-yl)-N-(3,5-difluoro-phenyl)-N′-(2,2,2-trifluoro-ethyl)-[1,3,5]triazine-2,4-diamine], for which the IC50 at IDH2 R172K is 100 to 1000 nM; at IDH2 R140Q, 100 to 1000 nM; in assay [1], < 100 nM.

Consider `CC(C)Nc1nc(Nc2cc(F)cc(F)c2)nc(-c2nc(N)cc(C(F)(F)F)n2)n1` [Compound 481, 6-(4-amino-6-(trifluoromethyl)pyrimidin-2-yl)-N2-(3,5-difluorophenyl)-N4-isopropyl-1,3,5-triazine-2,4-diamine], for which the IC50 was < 100 nM on IDH2 R172K, 100 to 1000 nM at IDH2 R140Q and < 100 nM in assay [1].

Regarding `CC(C)Nc1nc(Nc2cc(F)cc(F)c2)nc(-c2ccnc(N)n2)n1` [Compound 482, 6-(2-Amino-pyrimidin-4-yl)-N-(3,5-difluoro-phenyl)-N′-isopropyl-[1,3,5]triazine-2,4-diamine], the results for the IC50 (on IDH2 R172K; on IDH2 R140Q; in assay [1]) were < 100 nM, 100 to 1000 nM and < 100 nM, respectively.

Regarding `CC(C)Nc1nc(Nc2cccc(S(C)(=O)=O)c2)nc(-c2cc(Cl)cc(Cl)n2)n1` [Compound 483, 6-(4,6-dichloropyridin-2-yl)-N2-isopropyl-N4-(3-(methylsulfonyl)phenyl)-1,3,5-triazine-2,4-diamine], the IC50 at IDH2 R172K lay in the range of 1000 to 10000 nM; on IDH2 R140Q it was 100 to 1000 nM; in assay [1], 100 to 1000 nM.

Take `CC(C)Nc1nc(Nc2cccc(S(C)(=O)=O)c2)nc(-c2nc(C(F)(F)F)ccc2F)n1` [Compound 484, 6-(3-fluoro-6-(trifluoromethyl)pyridin-2-yl)-N2-isopropyl-N4-(3-(methylsulfonyl)phenyl)-1,3,5-triazine-2,4-diamine]: the IC50 on IDH2 R172K was 100 to 1000 nM; on IDH2 R140Q, 100 to 1000 nM; in assay [1] it was < 100 nM.

For the compound `CC(C)Nc1nc(Nc2cc(F)cc(F)c2)nc(-c2cc(Cl)cc(N)n2)n1` [Compound 485, 6-(6-amino-4-chloropyridin-2-yl)-N^2-(3,5-difluorophenyl)-N^4-isopropyl-1,3,5-triazine-2,4-diamine], the IC50 on IDH2 R172K is 100 to 1000 nM; on IDH2 R140Q it was 100 to 1000 nM; in assay [1], < 100 nM.

For `Nc1cccc(-c2nc(NCC(F)(F)F)nc(Nc3cc(F)cc(F)c3)n2)n1` [Compound 491, 6-(6-aminopyridin-2-yl)-N2-(3,5-difluorophenyl)-N4-(2,2,2-trifluoroethyl)-1,3,5-triazine-2,4-diamine], the IC50 was < 100 nM on IDH2 R172K, 100 to 1000 nM on IDH2 R140Q and < 100 nM in assay [1].

Regarding `CC(C)Nc1nc(Nc2cccc(F)c2)nc(-c2cccc(N)n2)n1` [Compound 492, 6-(6-aminopyridin-2-yl)-N2-(3-fluorophenyl)-N4-isopropyl-1,3,5-triazine-2,4-diamine], the figures for the IC50 (on IDH2 R172K; at IDH2 R140Q; in assay [1]) were < 100 nM, 100 to 1000 nM and < 100 nM, respectively.

As to `CC(C)(CO)CNc1nc(Nc2ccnc(C(F)(F)F)c2)nc(-c2cccc(Cl)n2)n1` [Compound 495, 3-[4-(6-Chloro-pyridin-2-yl)-6-(2-trifluoromethyl-pyridin-4-ylamino)-[1,3,5]triazin-2-ylamino]-2,2-dimethyl-propan-1-ol], the IC50 at IDH2 R172K was < 100 nM; at IDH2 R140Q it was 100 to 1000 nM; in assay [1], < 100 nM.

Turning to `CC(C)Nc1nc(Nc2ccnc(C(C)(C)O)c2)nc(-c2cccc(C(F)(F)F)n2)n1` [Compound 496, 2-{4-[4-Isopropylamino-6-(6-trifluoromethyl-pyridin-2-yl)-[1,3,5]triazin-2-ylamino]-pyridin-2-yl}-propan-2-ol], the IC50 was < 100 nM at IDH2 R172K, 100 to 1000 nM at IDH2 R140Q and < 100 nM in assay [1].

Regarding `CC(C)Nc1nc(Nc2cccc(S(=O)(=O)NCC3CC3)c2)nc(-c2cccc(Cl)n2)n1` [Compound 497, 3-[4-(6-Chloro-pyridin-2-yl)-6-isopropylamino-[1,3,5]triazin-2-ylamino]-N-cyclopropylmethyl-benzenesulfonamide], the values for the IC50 (on IDH2 R172K; on IDH2 R140Q; in assay [1]) were 100 to 1000 nM, 100 to 1000 nM and < 100 nM, respectively.

On to `CC(C)(C)CNc1nc(Nc2cncc(C#N)c2)nc(-c2cccc(Cl)n2)n1` [Compound 498, 5-[4-(6-Chloro-pyridin-2-yl)-6-(2,2-dimethyl-propylamino)-[1,3,5]triazin-2-ylamino]-nicotinonitrile], for which the results for the IC50 (on IDH2 R172K; on IDH2 R140Q; in assay [1]) were 1000 to 10000 nM, 100 to 1000 nM and 100 to 1000 nM, respectively.

As for `COCC(C)Nc1nc(Nc2ccnc(C(F)(F)F)c2)nc(-c2cccc(Cl)n2)n1` (stereo not drawn) [Compound 499, 6-(6-Chloro-pyridin-2-yl)-N-(2-methoxy-1-methyl-ethyl)-N′-(2-trifluoromethyl-pyridin-4-yl)-[1,3,5]triazine-2,4-diamine], the IC50 was < 100 nM on IDH2 R172K, 100 to 1000 nM at IDH2 R140Q and < 100 nM in assay [1].
